Measured values reported in US9546157B2, “Asymmetric piperidinyl-substituted ureas as medicines” (Helsinn Healthcare SA, priority 2014, dated 2017).

How the values were obtained:
[1] = Metabolic Stability (H = Human); format: in vitro ADME
[2] = Metabolic Stability (M = Mouse); format: in vitro ADME
GHSR1a [3] = target: T1, GHSR1a (Homo sapiens, UniProt Q92847); assay: Calcium FLIPR assay, GHSR-1a antagonism (reduction of ghrelin response); format: cell-based; conditions: HEK293/GHSR1a cells, ghrelin 10 nM
T1 construct: expressed in transfected cells; host or cells: HEK293
How it was run: (§1)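 Cells stably carrying human GHSR1a were plated a day ahead, dye-loaded, then given test compound. Agonist activity was the calcium rise over 2 minutes after compound addition at t=20 sec; antagonist activity was the reduction of the response to 10 nM ghrelin added together with compound.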

GHSR1a [4] = target: T1, GHSR1a; assay: Calcium FLIPR assay, GHSR-1a agonism; format: cell-based; parameters: Emax: unit not given here; conditions: HEK293/GHSR1a cells
How it was run: as §1

T1 sequence (Q92847 whole entry): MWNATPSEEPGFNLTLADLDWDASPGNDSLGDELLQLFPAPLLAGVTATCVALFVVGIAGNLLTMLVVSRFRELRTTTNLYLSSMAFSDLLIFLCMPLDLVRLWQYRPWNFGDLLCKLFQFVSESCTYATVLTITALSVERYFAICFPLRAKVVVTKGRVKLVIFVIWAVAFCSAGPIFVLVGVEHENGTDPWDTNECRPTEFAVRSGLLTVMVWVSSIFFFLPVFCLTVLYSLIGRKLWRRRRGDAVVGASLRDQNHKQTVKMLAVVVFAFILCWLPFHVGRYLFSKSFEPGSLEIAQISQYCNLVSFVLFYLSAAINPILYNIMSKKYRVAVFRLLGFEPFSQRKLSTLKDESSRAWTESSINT

| Metabolic Stability H [1] | Metabolic Stability M [2] | IC50 (GHSR1a [3]) [nM] | EC50 (GHSR1a [4]) [nM] | Emax (GHSR1a [4]) | SMILES |
| --- | --- | --- | --- | --- | --- |
| Medium H Medium M | Medium H Medium M | 8 | > 30000 | – | CCC(NC(=O)N(C)[C@@H]1CCN(C)CC1(C)C)c1ccc(-c2cnccn2)c(Cl)c1Cl (stereo partly drawn) [Compound H0858, 3-(1-(2,3-dichloro-4-(pyrazin-2-yl)phenyl)propyl)-1-methyl-1-((R)-1,3,3-trimethylpiperidin-4-yl)urea] |
| Medium H Medium M | Medium H Medium M | 85 | > 30000 | – | CC(NC(=O)N(C)C1CCN(C)CC1)c1ccc(-c2cncc(C(F)F)c2)c(Cl)c1Cl (centres unmarked) [Compound H0637, 3-(1-(2,3-dichloro-4-(5-(difluoromethyl)pyridin-3-yl)phenyl)ethyl)-1-methyl-1-(1-methylpiperidin-4-yl)urea] |
| Medium H Medium M | Medium H Medium M | 8 | > 30000 | – | CC(NC(=O)N(Cc1ccc(CO)cc1)C1CCN(C)CC1)c1ccc(-c2cccnc2)c(Cl)c1Cl (centres unmarked) [Compound H0546, 3-(1-(2,3-dichloro-4-(pyridin-3-yl)phenyl)ethyl)-1-(4-(hydroxymethyl)benzyl)-1-(1-methylpiperidin-4-yl)urea] |
| High H High M | High H High M | 13 | 22 | – | CC(NC(=O)N(C)C1CCN(C)CC1)c1ccc(-c2cnn(C)c2)c(Cl)c1Cl (centres unmarked) [Compound H0501, 3-(1-(2,3-dichloro-4-(1-methyl-1H-pyrazol-4-yl)phenyl)ethyl)-1-methyl-1-(1-methylpiperidin-4-yl)urea] |
| Medium | High | 20 | > 30000 | – | CN1CCC(N(C)C(=O)NC(CC2CC2)c2ccc(-c3cncc(N)c3)c(Cl)c2Cl)CC1 (centres unmarked) [Compound H0721, 3-(1-(4-(5-aminopyridin-3-yl)-2,3-dichlorophenyl)-2-cyclopropylethyl)-1-methyl-1-(1-methylpiperidin-4-yl)urea] |
| Medium | High | 12 | > 30000 | – | CCN(C(=O)NC(c1ccc(-c2cnccn2)c(Cl)c1Cl)C(F)(F)F)C1CCN(C)CC1 (centres unmarked) [Compound H0909, 3-(1-(2,3-dichloro-4-(pyrazin-2-yl)phenyl)-2,2,2-trifluoroethyl)-1-ethyl-1-(1-methylpiperidin-4-yl)urea] |
| High H High M | High H High M | 18 | 15 | – | CC(NC(=O)N(C)C1CCN(C)CC1)c1ccc(-c2c[nH]cn2)c(Cl)c1Cl (centres unmarked) [Compound H0542, 3-(1-(2,3-dichloro-4-(1H-imidazol-4-yl)phenyl)ethyl)-1-methyl-1-(1-methylpiperidin-4-yl)urea] |
| High H High M | High H High M | 4 | 1 | 5289 | CC(NC(=O)N(O)C1CCN(C)CC1)c1ccc(-c2cccs2)c(Cl)c1Cl (centres unmarked) [Compound H0627, 3-(1-(2,3-dichloro-4-(thiophen-2-yl)phenyl)ethyl)-1-hydroxy-1-(1-methylpiperidin-4-yl)urea] |
| High | Medium | 4 | 8 | – | Cc1ccc(-c2ccc(C(C)NC(=O)N(C)C3CCN(C)CC3)c(Cl)c2Cl)o1 (centres unmarked) [Compound H0665, 3-(1-(2,3-dichloro-4-(5-methylfuran-2-yl)phenyl)ethyl)-1-methyl-1-(1-methylpiperidin-4-yl)urea] |
| High H High M | High H High M | 12 | 25 | – | CC(NC(=O)N(C)C1CCN(C)CC1)c1ccc(-c2c[nH]nn2)c(Cl)c1Cl (centres unmarked) [Compound H0604, 3-(1-(2,3-dichloro-4-(1H-1,2,3-triazol-4-yl)phenyl)ethyl)-1-methyl-1-(1-methylpiperidin-4-yl)urea] |
| High H High M | High H High M | 9 | 4 | – | CC(NC(=O)N(C)C1CCN(C)CC1)c1ccc(-c2cscn2)c(Cl)c1Cl (centres unmarked) [Compound H0568, 3-(1-(2,3-dichloro-4-(thiazol-4-yl)phenyl)ethyl)-1-methyl-1-(1-methylpiperidin-4-yl)urea] |
| Medium | Poor | 4 | 5 | – | CC(NC(=O)N(C)C1CCN(C)C1)c1ccc(-c2ccsc2)c(Cl)c1Cl (centres unmarked) [Compound H0531, 3-(1-(2,3-dichloro-4-(thiophen-3-yl)phenyl)ethyl)-1-methyl-1-(1-methylpyrrolidin-3-yl)urea] |
| Low H Low M | Low H Low M | 20 | > 30000 | – | CC(=O)C#Cc1ccc(C(C)NC(=O)N(C)C2CCN(C)CC2)c(Cl)c1Cl (centres unmarked) [Compound H0701, 3-(1-(2,3-dichloro-4-(3-oxobut-1-yn-1-yl)phenyl)ethyl)-1-methyl-1-(1-methylpiperidin-4-yl)urea] |
| Poor | Medium | 54 | > 30000 | – | CN1CCC(N(C)C(=O)NC(COCc2cccc(CO)c2)c2ccc(-c3ccsc3)c(Cl)c2Cl)CC1 (centres unmarked) [Compound H0594, 3-(1-(2,3-dichloro-4-(thiophen-3-yl)phenyl)-2-((3-(hydroxymethyl)benzyl)oxy)ethyl)-1-methyl-1-(1-methylpiperidin-4-yl)urea] |
| Medium H Medium M | Medium H Medium M | 87 | > 30000 | – | CC(NC(=O)N(C)C1CCN(C)CC1)c1ccc(-c2cocn2)c(Cl)c1Cl (centres unmarked) [Compound H0569, 3-(1-(2,3-dichloro-4-(oxazol-4-yl)phenyl)ethyl)-1-methyl-1-(1-methylpiperidin-4-yl)urea] |
| Medium | Poor | 12 | > 30000 | – | CC(NC(=O)N(C)C1CCN(C)C1)c1ccc(-c2cn[nH]c2)c(Cl)c1Cl (centres unmarked) [Compound H0529, 3-(1-(2,3-dichloro-4-(1H-pyrazol-4-yl)phenyl)ethyl)-1-methyl-1-(1-methylpyrrolidin-3-yl)urea] |
| Poor H Poor M | Poor H Poor M | 32 | > 30000 | – | CN1CCC(N(C)C(=O)NC(COCc2cccc(CO)c2)c2ccc(-c3cncnc3)c(Cl)c2Cl)CC1 (centres unmarked) [Compound H0620, 3-(1-(2,3-dichloro-4-(pyrimidin-5-yl)phenyl)-2-((3-(hydroxymethyl)benzyl)oxy)ethyl)-1-methyl-1-(1-methylpiperidin-4-yl)urea] |
| Medium H Medium M | Medium H Medium M | 4 | 9 | 1815 | CC(NC(=O)N(C)C1CCN(C)CC1)c1ccc(-c2ccc(CO)s2)c(Cl)c1Cl (centres unmarked) [Compound H0653, 3-(1-(2,3-dichloro-4-(5-(hydroxymethyl)thiophen-2-yl)phenyl)ethyl)-1-methyl-1-(1-methylpiperidin-4-yl)urea] |
| Medium H Medium M | Medium H Medium M | 16 | 38 | – | CC(NC(=O)N(C)C1CCN(C)CC1)c1ccc(-c2cnc3[nH]ccc3c2)c(Cl)c1Cl (centres unmarked) [Compound H0514] |
| Medium H Medium M | Medium H Medium M | 7 | 15 | 1350 | CC(O)c1ccc(-c2ccc(C(C)NC(=O)N(C)C3CCN(C)CC3)c(Cl)c2Cl)s1 (centres unmarked) [Compound H0656, 3-(1-(2,3-dichloro-4-(5-(1-hydroxyethyl)thiophen-2-yl)phenyl)ethyl)-1-methyl-1-(1-methylpiperidin-4-yl)urea] |
| Medium | Low | 10 | > 30000 | – | CCC(NC(=O)N(C)C1CCN(C)C1)c1ccc(-c2cnccn2)c(Cl)c1Cl (centres unmarked) [Compound H0857, 3-(1-(2,3-dichloro-4-(pyrazin-2-yl)phenyl)propyl)-1-methyl-1-(1-methylpyrrolidin-3-yl)urea] |
| Medium | High | 3 | > 30000 | – | CCC(NC(=O)N(C)C1CCN(C)CC1)c1ccc(-c2cncc(F)n2)c(Cl)c1Cl (centres unmarked) [Compound H0863, 3-(1-(2,3-dichloro-4-(6-fluoropyrazin-2-yl)phenyl)propyl)-1-methyl-1-(1-methylpiperidin-4-yl)urea] |
| High | Medium | 6 | 10 | 2200 | CC(NC(=O)N(C)C1CCN(C)CC1)c1ccc(-c2ccc(C(F)F)s2)c(Cl)c1Cl (centres unmarked) [Compound H0654, 3-(1-(2,3-dichloro-4-(5-(difluoromethyl)thiophen-2-yl)phenyl)ethyl)-1-methyl-1-(1-methylpiperidin-4-yl)urea] |
| High H High M | High H High M | 28 | 30 | – | CC(NC(=O)N(C)C1CCN(C)CC1)c1ccc(-n2ccnn2)c(Cl)c1Cl (centres unmarked) [Compound H0565, 3-(1-(2,3-dichloro-4-(1H-1,2,3-triazol-1-yl)phenyl)ethyl)-1-methyl-1-(1-methylpiperidin-4-yl)urea] |
| Medium H Medium M | Medium H Medium M | 19 | > 30000 | – | CC(NC(=O)N(C)C1CCN(C)CC1C)c1ccc(-c2cccnc2)c(Cl)c1Cl (centres unmarked) [Compound H0527, 3-(1-(2,3-dichloro-4-(pyridin-3-yl)phenyl)ethyl)-1-(1,3-dimethylpiperidin-4-yl)-1-methylurea] |
